The values below come from ChEMBL document CHEMBL6127079, “Design and synthesis of spiro[pyrrolidine-3,3'-quinoline]-2,2'-dione derivatives as novel antifungal agents targeting chitin synthase” (Eur J Med Chem, 2024).

Values after ≈ are worked out from the molar mass of the structure shown. *1 amine or outer side, *2 acyl side, *3 side chain or, on linkers, in order; H or OH if unused. Where a SMILES comes first, the peptide text is derived from it. Bridges are numbered along the chain shown (N, C = ends). [ ]: non-standard residue; d: D form. The star is where a group is joined. hTyr(3S-OH,4S-OH,3'-OSO3H) = N[C@H](C(=O)O)[C@H](O)[C@@H](O)c1ccc(O)c(OS(=O)(=O)O)c1; Orn(4R-OH,5R-OH) = O=C([C@H](C[C@@H](O)[C@@H](O)N[*:3])N[*:1])[*:2]; Pro(3S-OH,4S-Me) = C[C@H]1CN[C@H](C(=O)O)[C@H]1O; X1 = CCCCCOc1ccc(-c2cc(-c3ccc(C(=O)*)cc3)no2)cc1; Gln(3R-OH) = NC(=O)C[C@@H](O)[C@H](N)C(=O)O; Hyp = O=C(O)[C@@H]1C[C@@H](O)CN1

In test [1] the test system is Aspergillus fumigatus. Nature of the test: Antifungal activity against Aspergillus fumigatus GIMCC 3.19 assessed as inhibition of growth incubated for 24 hrs by two-fold serial dilution method. It is filed as functional.
The subject of test [2] is Aspergillus flavus. The test is described as follows: Antifungal activity against Aspergillus flavus ATCC 16870 assessed as inhibition of growth incubated for 24 hrs by two-fold serial dilution method. It is filed as functional.
Test [3] concerns Cryptococcus neoformans. Nature of the test: Antifungal activity against Cryptococcus neoformans ATCC 32719 assessed as inhibition of growth incubated for 24 hrs by two-fold serial dilution method. It is filed as functional.
For a further test, the system named is Candida tropicalis. Nature of the test: Inhibition of chitin synthase extracted from Candida tropicalis ATCC 750 using UDP-GlcNAc as substrate assessed as inhibition rate at 300 ug/ml by TMB based microplate analyzer relative to control. Particulars: dose 300.0 µg/ml.
Test [4] relates to Candida albicans. The test is described as follows: Antifungal activity against Candida albicans ATCC 76615 assessed as inhibition of growth incubated for 24 hrs by two-fold serial dilution method. It is filed as functional.
A short description of test [5]: Inhibition of chitin synthase extracted from Candida tropicalis ATCC 750 using UDP-GlcNAc as substrate assessed as inhibition rate by TMB based microplate analyzer relative to control.
Test [6] concerns Candida albicans. The test is described as follows: Antifungal activity against micafungin-resistant Candida albicans ATCC 76615 assessed as inhibition of fungal growth incubated for 24 to 72 hrs. It is filed as functional. Particulars: time 24-72 hrs.
In test [7] the test system is Candida albicans. Nature of the test: Antifungal activity against Candida albicans ATCC 76615 incubated for 24 hrs by half broth dilution based checkerboard method. It is filed as functional.
Test [8] relates to Cryptococcus neoformans. The test is described as follows: Antifungal activity against Cryptococcus neoformans ATCC 32719 incubated for 24 hrs by half broth dilution based checkerboard method. It is filed as functional.
Test [9] has as its system Aspergillus flavus. The test is described as follows: Antifungal activity against fluconazole-resistant Aspergillus flavus ATCC 16870 assessed as inhibition of fungal growth incubated for 24 to 72 hrs. It is filed as functional. Particulars: time 24-72 hrs.
The test system of test [10] is Cryptococcus neoformans. The test is described as follows: Antifungal activity against fluconazole-resistant Cryptococcus neoformans ATCC 32719 assessed as inhibition of fungal growth incubated for 24 to 72 hrs. It is filed as functional. Particulars: time 24-72 hrs.
Test [11] has as its system Aspergillus flavus. Nature of the test: Antifungal activity against Aspergillus flavus ATCC 16870 incubated for 24 hrs by half broth dilution based checkerboard method. It is filed as functional. On the technique in general: In broth dilution the organism is exposed to a series of concentrations in liquid medium.
Test [12] relates to Aspergillus fumigatus. The test is described as follows: Antifungal activity against fluconazole-resistant Aspergillus fumigatus GIMCC 3.19 assessed as inhibition of fungal growth incubated for 24 to 72 hrs. It is filed as functional. Particulars: time 24-72 hrs.
Test [13] relates to Candida albicans. Nature of the test: Antifungal activity against fluconazole-resistant Candida albicans ATCC 76615 assessed as inhibition of fungal growth incubated for 24 to 72 hrs. It is filed as functional. Particulars: time 24-72 hrs.
The subject of test [14] is Aspergillus fumigatus. Nature of the test: Antifungal activity against Aspergillus fumigatus GIMCC 3.19 incubated for 24 hrs by half broth dilution based checkerboard method. It is filed as functional.

As for `Cc1ccc(NC(=O)C2CCN(CC(=O)Nc3ccc4c(c3)NC(=O)C3(CCNC3=O)C4)CC2)cc1` (racemic), the MIC with Aspergillus fumigatus [1] was 128 µg/mL (≈ 261 µM); in the test on Aspergillus flavus [2] it was 64 µg/mL (≈ 131 µM); in the test with Cryptococcus neoformans [3] it was 32 µg/mL (≈ 65.4 µM); with Candida albicans [4], 32 µg/mL (≈ 65.4 µM). In addition, the inhibition in the test with Candida tropicalis turned out to be 45.1%. In addition, the IC50 in test [5] came out at 286 µM.

With `O=C(CN1CCC(C(=O)Nc2ccc(F)cc2)CC1)Nc1ccc2c(c1)NC(=O)C1(CCNC1=O)C2` (racemic), the minimal inhibitory concentration (MIC) came out at 64 µg/mL (≈ 130 µM) in the test with Aspergillus fumigatus [1], 32 µg/mL (≈ 64.8 µM) with Aspergillus flavus [2], 128 µg/mL (≈ 259 µM) with Cryptococcus neoformans [3] and 128 µg/mL (≈ 259 µM) with Candida albicans [4]. The inhibition in the test on Candida tropicalis stood at 79.7%.

For `CCCCCCNC(=O)C1CCN(CC(=O)Nc2ccc3c(c2)NC(=O)C2(CCNC2=O)C3)CC1` (racemic), the minimum inhibitory concentration (MIC) in the test on Aspergillus fumigatus [1] was found to be 128 µg/mL (≈ 265 µM); with Aspergillus flavus [2] it was 256 µg/mL (≈ 529 µM); with Cryptococcus neoformans [3], 256 µg/mL (≈ 529 µM); with Candida albicans [4] it was 128 µg/mL (≈ 265 µM). The inhibition in the test on Candida tropicalis amounted to 24%.

`CCCCNC(=O)C1CCN(CC(=O)Nc2ccc3c(c2)NC(=O)C2(CCNC2=O)C3)CC1` (racemic): the MIC in the test on Aspergillus fumigatus [1] worked out at 256 µg/mL (≈ 562 µM); in the test with Aspergillus flavus [2], 64 µg/mL (≈ 140 µM); in the test with Cryptococcus neoformans [3] it was 128 µg/mL (≈ 281 µM); with Candida albicans [4], 256 µg/mL (≈ 562 µM). In the test with Candida tropicalis, the inhibition amounted to 18.2%.

As for `Cc1ccc(NC(=O)C2CCN(CC(=O)Nc3ccc4c(c3)NC(=O)C3(CCNC3=O)C4)CC2)cc1C` (racemic), the MIC worked out at 64 µg/mL (≈ 127 µM) with Aspergillus fumigatus [1], 32 µg/mL (≈ 63.5 µM) in the test on Aspergillus flavus [2], 64 µg/mL (≈ 127 µM) in the test with Cryptococcus neoformans [3] and 32 µg/mL (≈ 63.5 µM) in the test with Candida albicans [4]. Further, the inhibition in the test on Candida tropicalis came to 42.3%.

In the case of `CCCNC(=O)/C=C/C(=O)Nc1ccc2c(c1)NC(=O)C1(CCNC1=O)C2` (racemic), the minimal inhibitory concentration (MIC) with Aspergillus fumigatus [1] is 64 µg/mL (≈ 173 µM); in the test on Aspergillus flavus [2] it was 128 µg/mL (≈ 346 µM); with Cryptococcus neoformans [3], 128 µg/mL (≈ 346 µM); in the test on Candida albicans [4] it was 128 µg/mL (≈ 346 µM). Further, the inhibition with Candida tropicalis was 36.9%.

Take `CCCCCOc1ccc(-c2cc(-c3ccc(C(=O)N[C@H]4C[C@@H](O)[C@@H](O)NC(=O)[C@@H]5[C@@H](O)[C@@H](C)CN5C(=O)[C@H]([C@H](O)CC(N)=O)NC(=O)[C@H]([C@H](O)[C@@H](O)c5ccc(O)c(OS(=O)(=O)O)c5)NC(=O)[C@@H]5C[C@@H](O)CN5C(=O)[C@H]([C@@H](C)O)NC4=O)cc3)no2)cc1` [MICAFUNGIN] (X1-[Orn(4R-OH,5R-OH)]T[Hyp][hTyr(3S-OH,4S-OH,3'-OSO3H)][Gln(3R-OH)][Pro(3S-OH,4S-Me)]; lactam 1-C): in the test with Candida albicans [6], the minimum inhibitory concentration (MIC) is 256 µg/mL (≈ 202 µM).

As to `O=C(/C=C/C(=O)Nc1nccs1)Nc1ccc2c(c1)NC(=O)C1(CCNC1=O)C2` (racemic), the MIC in the test with Aspergillus fumigatus [1] was determined as 32 µg/mL (≈ 77.8 µM); in the test on Aspergillus flavus [2], 64 µg/mL (≈ 156 µM); in the test on Cryptococcus neoformans [3], 32 µg/mL (≈ 77.8 µM); with Candida albicans [4], 64 µg/mL (≈ 156 µM). Besides, in the test on Candida tropicalis, the inhibition is 55.8%. For the same compound, the IC50 in [5] stood at 441 µM.

Turning to `O=C(CN1CCC(C(=O)Nc2nc3ccccc3s2)CC1)Nc1ccc2c(c1)NC(=O)C1(CCNC1=O)C2` (racemic), the minimal inhibitory concentration (MIC) in the test with Aspergillus fumigatus [1] stood at 32 µg/mL (≈ 60.1 µM); in the test on Aspergillus flavus [2], 32 µg/mL (≈ 60.1 µM); with Cryptococcus neoformans [3], 16 µg/mL (≈ 30 µM); in the test with Candida albicans [4], 64 µg/mL (≈ 120 µM). Further, the inhibition in the test on Candida tropicalis is 57.7%. For the same compound, the 50% inhibitory concentration (IC50) in test [5] turned out to be 379 µM.

In the case of `CCCNC(=O)C1CCN(CC(=O)Nc2ccc3c(c2)NC(=O)C2(CCNC2=O)C3)CC1` (racemic), the MIC with Aspergillus fumigatus [1] is 256 µg/mL (≈ 580 µM); in the test on Aspergillus flavus [2], 128 µg/mL (≈ 290 µM); with Cryptococcus neoformans [3], 512 µg/mL (≈ 1160 µM); in the test with Candida albicans [4] it was 128 µg/mL (≈ 290 µM). In addition, the inhibition in the test with Candida tropicalis was found to be 22.5%.

For the compound `OC(Cn1cncn1)(Cn1cncn1)c1ccc(F)cc1F` [FLUCONAZOLE], the MIC in the test with Aspergillus fumigatus [1] was determined as 4 µg/mL (≈ 13.1 µM); with Candida albicans [7], 8 µg/mL; in the test with Aspergillus flavus [2], 4 µg/mL (≈ 13.1 µM); in the test with Cryptococcus neoformans [8], 8 µg/mL; in the test on Aspergillus flavus [9], 256 µg/mL (≈ 836 µM); in the test with Cryptococcus neoformans [10], 256 µg/mL (≈ 836 µM). The MIC in the test with Aspergillus flavus [11] amounted to 4 µg/mL; with Cryptococcus neoformans [3] it was 8 µg/mL (≈ 26.1 µM); in the test with Aspergillus fumigatus [12], 256 µg/mL (≈ 836 µM); in the test with Candida albicans [13], 256 µg/mL (≈ 836 µM); with Candida albicans [4], 8 µg/mL (≈ 26.1 µM); with Aspergillus fumigatus [14], 4 µg/mL.

Consider `COc1ccccc1NC(=O)C1CCN(CC(=O)Nc2ccc3c(c2)NC(=O)C2(CCNC2=O)C3)CC1` (racemic), for which the minimal inhibitory concentration (MIC) worked out at 128 µg/mL (≈ 253 µM) in the test on Aspergillus fumigatus [1], 32 µg/mL (≈ 63.3 µM) in the test with Aspergillus flavus [2], 32 µg/mL (≈ 63.3 µM) in the test with Cryptococcus neoformans [3] and 64 µg/mL (≈ 127 µM) in the test with Candida albicans [4]. In addition, the inhibition with Candida tropicalis stood at 39.7%.

Regarding `CCCCN(CCCC)C(=O)/C=C/C(=O)Nc1ccc2c(c1)NC(=O)C1(CCNC1=O)C2` (racemic), the MIC in the test with Aspergillus fumigatus [1] stood at 256 µg/mL (≈ 581 µM); with Aspergillus flavus [2] it was 256 µg/mL (≈ 581 µM); with Cryptococcus neoformans [3] it was 128 µg/mL (≈ 291 µM); in the test on Candida albicans [4], 256 µg/mL (≈ 581 µM). In addition, the inhibition with Candida tropicalis was 28.2%.

For the compound `O=C(/C=C/C(=O)Nc1ccccc1Br)Nc1ccc2c(c1)NC(=O)C1(CCNC1=O)C2` (racemic), the minimal inhibitory concentration (MIC) with Aspergillus fumigatus [1] came out at 32 µg/mL (≈ 66.2 µM); with Aspergillus flavus [2], 32 µg/mL (≈ 66.2 µM); in the test on Cryptococcus neoformans [3], 16 µg/mL (≈ 33.1 µM); in the test with Candida albicans [4] it was 32 µg/mL (≈ 66.2 µM). For the same compound, in the test with Candida tropicalis, the inhibition was found to be 66.2%. In addition, in [5], the half-maximal inhibitory concentration (IC50) was 266 µM.

As usually defined, the MIC is the lowest concentration that inhibits growth of the organism. As a reminder, the inhibition is the relative decrease from the control value, in per cent. The IC50 is the concentration that gives 50% inhibition.
